Assay type in all cases: cell-based
In assay [1] the target is T1, Vitamin D3 receptor (Homo sapiens, UniProt P11473).
T1 sequence (P11473 whole entry): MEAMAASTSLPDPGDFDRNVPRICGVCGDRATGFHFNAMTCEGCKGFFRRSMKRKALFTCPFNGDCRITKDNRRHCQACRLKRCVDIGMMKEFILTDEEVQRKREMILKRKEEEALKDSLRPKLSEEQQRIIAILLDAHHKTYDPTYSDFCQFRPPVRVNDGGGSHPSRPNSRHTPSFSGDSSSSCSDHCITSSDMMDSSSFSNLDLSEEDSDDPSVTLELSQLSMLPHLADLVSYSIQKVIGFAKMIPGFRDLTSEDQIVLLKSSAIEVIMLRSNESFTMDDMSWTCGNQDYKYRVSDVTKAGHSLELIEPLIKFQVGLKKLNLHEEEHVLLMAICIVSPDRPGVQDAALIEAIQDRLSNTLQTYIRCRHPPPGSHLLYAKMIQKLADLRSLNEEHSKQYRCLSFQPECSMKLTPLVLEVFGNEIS
Put plainly: Transactivation of full length human VDR expressed in human HeLa cells assessed as increase in CYP24 transcription after 18 hrs by luciferase reporter gene assay.

The target of assay [2] is T2, Vitamin D3 receptor (Homo sapiens) (UniProt P11473).
T2 sequence (whole entry): T1 sequence (P11473 whole entry)
Put plainly: Ratio of calcitriol EC50 to compound EC50 for full length human VDR expressed in human HeLa cells.

Assay [3] addresses T1, Vitamin D3 receptor. Put plainly: Transactivation of GAL4-fused VDR ligand binding domain expressed in human HeLa cells after 16 hrs by luciferase reporter gene assay.

pEC50: −log10 of the molar value.

For `CC/C(=C\C=C\C(O)(CC)CC)c1cccc(OCc2ccc(CO)c(CO)c2)c1`, the pEC50 at Vitamin D3 receptor [1] is 7.31.

As to `CCCc1cc(C(O)(CC)CC)ccc1-c1cc(CCc2ccc(CO)c(CO)c2)ccc1C`, on Vitamin D3 receptor [1], the negative-log EC50 (pEC50) is 9.30. Further, the Ratio EC50 in assay [2] was found to be 4.

As for `CCCc1cc(C(O)(CC)CC)ccc1-c1cc(OCc2ccc(CO)c(CO)c2)ccc1CC`, the pEC50 on Vitamin D3 receptor [1] is 8.66.

On to `CC/C(=C\C=C\C(O)(C(F)(F)F)C(F)(F)F)c1cccc(OCc2ccc(CO)c(CO)c2)c1`, for which, on Vitamin D3 receptor [3], the pEC50 is 8.30.

Regarding `CC/C(=C\C=C\C(O)(C(F)(F)F)C(F)(F)F)c1cccc(CCc2ccc(CO)c(CO)c2)c1`, the pEC50 is 8.55 on Vitamin D3 receptor [1] and 8.77 on Vitamin D3 receptor [3].

(Values after ChEMBL document CHEMBL2169765, “Structural basis for the accommodation of bis- and tris-aromatic derivatives in vitamin D nuclear receptor” (J Med Chem, 2012).)
